{
  "source": "patent EP0126287B1",
  "about": "“Fluorinated compounds having analgesic and antiinflammatory activities” (MEDEA RESEARCH S.r.l., priority 1983, dated 1984)",
  "key": {"[1]": {"tested_on": "writhing induced by acetic acid in the rat", "assay": "Inhibition of writhing induced by acetic acid, analgesic ED50", "format": "in vivo", "settings": "po", "protocol": "The ED50 in the analgesic activity of MR 883, in comparison to Diflunisal, D-prppoxyphene, phenylbutazone and acetylsalicylic acid was determined according to the test of inhibition of writhing induced by acetic acid in the rat (Sofia et al., J. Pharmacol. Expt. Therap. 186, 646, 1973)."}, "[2]": {"tested_on": "rat", "settings": "cited from earlier work"}, "[3]": {"tested_on": "carrageenin oedema in the rat paw", "assay": "Carrageenin oedema test (rat paw), antiinflammatory activity", "format": "in vivo", "settings": "for Inhibition versus control / AREAS % M ± ES: 50 mg/kg p.o., 10 rats per group; for Inhibition versus control: oedema areas; for AREAS % M ± ES: control 305 ±23.7; for ED50: Rattus norvegicus, carrageenin oedema, oral, groups of 10 rats, dosages of 25.50 and 100 mg/kg", "protocol": "The antiinflammatory activity of the compounds of the invention was determined according to the carrageenin oedema test in rats, in comparison with equiponderal dosages of Diflunisal (Rissly, Ness.; Proc. Soc. Exp. Biol. Med., 111, 544-547, 1962).\nED50 of MR 883 and Diflunisal were determined according to the same test. Groups of 10 rats were administered orally with the compounds at dosages of 25.50 and 100 mg/kg."}, "[4]": {"tested_on": "writhing induced by phenylquinone administration in Swiss rats", "assay": "Phenylquinone writhing test, analgesic activity", "format": "in vivo", "settings": "for No. WRITHINGS M̄ ± ES: control 24.5 ±2.2", "protocol": "The analgesic activity of the compounds of the invention was determined according to the writhing test, as inhibitory activity against the writhing induced by phenylquinone administration in Swiss rats (Siegmund et al., Proc. Soc. Exp. Biol. Med. 95, 729, 1957). The analgesic activity of MR 883 was determined in comparison to the one of Diflunisal and Naproxen."}, "[5]": {"assay": "Qualitative solubility of the isolated product", "format": "physicochemical", "settings": "for solubility in bicarbonate solutions: bicarbonate solution"}, "[6]": {"assay": "Acute toxicology: indicative LD50 in the rat", "settings": "in vivo, ip"}, "[7]": {"settings": "acetic acid writhing in the rat, per os, read-out: ED50"}, "[8]": {"settings": "dose 50 mg/kg, 10 animals per group"}},
  "note": "Like-named read-outs stand apart in the source and are kept apart here.",
  "data": [
    {"compound": "CC(=O)Oc1ccccc1C(=O)O", "note": "[Acetylsalicylic acid]", "values": [
      {"measurement": "ED50", "setting": "[1]; Rattus norvegicus", "value": 330, "unit": "mg/kg"}
    ]},
    {"compound": "CCC(=O)O[C@](Cc1ccccc1)(c1ccccc1)[C@H](C)CN(C)C", "note": "[D-propoxyphene]", "values": [
      {"measurement": "ED50", "setting": "[1]; Rattus norvegicus", "value": 40, "unit": "mg/kg"}
    ]},
    {"compound": "O=C(O)c1cc(-c2ccc(F)cc2F)ccc1O", "note": "[Diflunisal, reference compound]", "values": [
      {"measurement": "LD50 p.o.", "setting": "[2]", "value": "about 750 mg/kg"},
      {"measurement": "ED50", "setting": "[1]; [7]", "value": 45, "unit": "mg/kg"},
      {"measurement": "Inhibition versus control", "setting": "[3]", "value": 59.6, "unit": "%"},
      {"measurement": "AREAS % M ± ES", "setting": "[3]", "value": "123.3 ±10.1"},
      {"measurement": "ED50", "setting": "[3]", "value": 234, "unit": "mg/kg"},
      {"measurement": "% Inhibition versus control", "setting": "[4]; dose 50 mg/kg", "value": 82, "unit": "%"},
      {"measurement": "No. WRITHINGS M̄ ± ES", "setting": "[4]; [8]", "value": "4.3 ±1.6"}
    ]},
    {"compound": "O=C(O)C(O)c1ccc(-c2ccc(F)cc2F)cc1", "note": "(centres unmarked) [MR 864, 2-Hydroxy-2-[p-(2\",4\"-difluorophenyl)phenyl]acetic acid]", "values": [
      {"measurement": "solubility in cyclohexane and petroleum ether", "setting": "[5]; cyclohexane, petroleum ether", "value": "soluble"},
      {"measurement": "solubility in toluene, chloroform, carbon tetrachloride", "setting": "[5]; toluene, chloroform, carbon tetrachloride", "value": "slightly soluble"},
      {"measurement": "solubility in water", "setting": "[5]", "value": "soluble"},
      {"measurement": "LD50", "setting": "[6]", "value": 850, "unit": "mg/kg"},
      {"measurement": "Inhibition versus control", "setting": "[3]", "value": 42.7, "unit": "%"},
      {"measurement": "AREAS % M ± ES", "setting": "[3]", "value": "174.7 ±20.7"},
      {"measurement": "% Inhibition versus control", "setting": "[4]; dose 50 mg/kg", "value": 85, "unit": "%"},
      {"measurement": "No. WRITHINGS M̄ ± ES", "setting": "[4]; [8]", "value": "3.6 ±1.2"}
    ]},
    {"compound": "O=C(O)C(Cl)c1ccc(-c2ccc(F)cc2F)cc1", "note": "(centres unmarked) [MR 881, 2-Chloro-2-[p-(2\",4\"-difluorophenyl)phenyl]acetic acid]", "values": [
      {"measurement": "solubility in bicarbonate solutions", "setting": "[5]", "value": "soluble"},
      {"measurement": "solubility in the usual organic solvents", "setting": "[5]", "value": "soluble"},
      {"measurement": "solubility in water", "setting": "[5]", "value": "insoluble"},
      {"measurement": "LD50", "setting": "[6]", "value": 850, "unit": "mg/kg"},
      {"measurement": "Inhibition versus control", "setting": "[3]", "value": 48.6, "unit": "%"},
      {"measurement": "AREAS % M ± ES", "setting": "[3]", "value": "156.8 ±13.1"},
      {"measurement": "% Inhibition versus control", "setting": "[4]; dose 50 mg/kg", "value": 95, "unit": "%"}
    ]},
    {"compound": "COC(C(=O)O)c1ccc(-c2ccc(F)cc2F)cc1", "note": "(centres unmarked) [MR 883, 2-Methoxy-2-[p-(2^1,4\"-difluorophenyl)phenyl]acetic acid]", "values": [
      {"measurement": "solubility in the usual organic solvents", "setting": "[5]", "value": "soluble"},
      {"measurement": "LD50", "setting": "[6]", "value": 2200, "unit": "mg/kg"},
      {"measurement": "ED50", "setting": "[1]; [7]", "value": 25, "unit": "mg/kg"},
      {"measurement": "Inhibition versus control", "setting": "[3]", "value": 52.8, "unit": "%"},
      {"measurement": "AREAS % M ± ES", "setting": "[3]", "value": "144.0 ±17.5"},
      {"measurement": "ED50", "setting": "[3]", "value": 145, "unit": "mg/kg"},
      {"measurement": "% Inhibition versus control", "setting": "[4]; dose 50 mg/kg", "value": 98, "unit": "%"}
    ]},
    {"compound": "CCOC(C(=O)O)c1ccc(-c2ccc(F)cc2F)cc1", "note": "(centres unmarked) [MR 936, 2-Ethoxy-2-[p-(2\",4\"-difluorophenyl)phenyl]acetic acid]", "values": [
      {"measurement": "solubility in bicarbonate solutions", "setting": "[5]", "value": "soluble"},
      {"measurement": "solubility in the usual organic solvents", "setting": "[5]", "value": "soluble"},
      {"measurement": "LD50", "setting": "[6]", "value": 1800, "unit": "mg/kg"},
      {"measurement": "Inhibition versus control", "setting": "[3]", "value": 45.8, "unit": "%"},
      {"measurement": "AREAS % M ± ES", "setting": "[3]", "value": "139.7 ±15.2"},
      {"measurement": "% Inhibition versus control", "setting": "[4]; dose 50 mg/kg", "value": 76.7, "unit": "%"},
      {"measurement": "No. WRITHINGS M̄ ± ES", "setting": "[4]; [8]", "value": "5.7 ±0.8"}
    ]},
    {"compound": "COc1ccc2cc([C@H](C)C(=O)O)ccc2c1", "note": "[Naproxen, reference compound]", "values": [
      {"measurement": "% Inhibition versus control", "setting": "[4]; dose 100 mg/kg", "value": 84, "unit": "%"},
      {"measurement": "No. WRITHINGS M̄ ± ES", "setting": "[4]; dose 100 mg/kg, 10 animals", "value": "4.0 ±1.1"}
    ]},
    {"compound": "CCCCC1C(=O)N(c2ccccc2)N(c2ccccc2)C1=O", "note": "[Phenylbutazone]", "values": [
      {"measurement": "ED50", "setting": "[1]; [7]", "value": 180, "unit": "mg/kg"}
    ]}
  ]
}
